As a reminder, the inhibition is how much of the control response was suppressed. Lower therefore signals little suppression. In general, IC50 refers to the concentration that inhibits the measured activity by half. Low readings indicate greater potency in that assay, high ones weaker potency in that assay.

Data on 13 compounds can be found in ChEMBL document CHEMBL1134231, “Peptidomimetic inhibitors of protein farnesyltransferase show potent antimalarial activity” (Bioorg Med Chem Lett, 2001).

The test system of assay [1] is Plasmodium falciparum. Briefly: Growth inhibition of Plasmodium falciparum 3D7 infected red blood cells. Type of assay: functional. Conditions: read-out: ED50 (the source's name).
The test system of assay [2] is Plasmodium falciparum. Description: Percent growth inhibition of Plasmodium falciparum 3D7 in erythrocytes at 20 uM. Type of assay: functional.
The target of assay [3] is Protein farnesyltransferase (Homo sapiens, UniProt P49354+P49356). Description: Inhibition of mammalian Farnesyltransferase. Type of assay: protein-complex assay.
Assay [4] has as its target Protein farnesyltransferase (Mus musculus, UniProt Q61239+Q8K2I1). Briefly: Inhibition of mammalian H-Ras processing in NIH 3T3 cells. Type of assay: functional, cell-based, NIH3T3.
Assay [5] concerns Plasmodium falciparum. Briefly: Inhibition of Plasmodium falciparum 3D7 infected red blood cells. Type of assay: functional. The settings on record: read-out: ED50 (the source's name).

Converted amounts (≈) assume the structure as drawn. Some results are limits rather than exact numbers.

In the case of `COC(=O)[C@H](CCSC)NC(=O)c1ccc(CNCc2c[nH]cn2)cc1-c1ccccc1C`, in the assay with Plasmodium falciparum [1], the EC50 was determined as 2 µg/mL (≈ 4.29 µM). Further, 20 µM produced 99% inhibition in the assay on Plasmodium falciparum [2]. The concentration for half-maximal inhibition (IC50) in assay [3] is 34000 nM; in assay [4], 0.02 µM.

In the case of `N#Cc1ccc(Cn2cncc2CNc2ccc(C(=O)NCc3ccccc3)c(-c3ccccc3)c2)cc1`, the EC50 in the assay with Plasmodium falciparum [1] came to 4 µg/mL (≈ 8.04 µM). This compound also returned an IC50 in assay [3] of 640 nM.

Turning to `CSCC[C@H](NC(=O)c1ccc(NCc2cncn2Cc2ccc(C#N)cc2)cc1-c1ccccc1)C(=O)O`, the EC50 with Plasmodium falciparum [1] was 13 µg/mL (≈ 24.1 µM). In the assay with Plasmodium falciparum [2], this compound registered an inhibition at 20 µM of 86.3%. The IC50 came out at 7.2 nM in assay [3] and 5 µM in assay [4].

`CSCC[C@H](NC(=O)c1ccc(NCc2cn(Cc3cccc4ccccc34)cn2)cc1-c1ccccc1)C(=O)O`: in the assay on Plasmodium falciparum [1], the EC50 was 10 µg/mL (≈ 17.7 µM). In the assay on Plasmodium falciparum [2], this compound came in with an inhibition at 20 µM of 19.4%. For the same compound, the IC50 in assay [3] was 3000 nM; in assay [4] it was above 100 µM.

Regarding `N#Cc1ccc(Cn2cncc2CNc2ccc(C(=O)NCC3CCCCC3)c(-c3ccccc3)c2)cc1`, in the assay on Plasmodium falciparum [1], the EC50 stood at 3 µg/mL (≈ 5.96 µM). The figures for the IC50 in assay [3] and in assay [4] were 3100 nM and above 100 µM, respectively.

On to `CSCC[C@H](NC(=O)c1ccc(NCc2cn(Cc3ccc(-c4ccccc4)cc3)cn2)cc1-c1ccccc1)C(=O)O`, for which the EC50 in the assay with Plasmodium falciparum [1] worked out at 12 µg/mL (≈ 20.3 µM). Also, the values for the IC50 in assay [3] and in assay [4] were 6000 nM and above 100 µM, respectively.

In the case of `CSCC[C@H](NC(=O)c1ccc(NCc2cn(CC3CCCCC3)cn2)cc1-c1ccccc1)C(=O)O`, the EC50 in the assay with Plasmodium falciparum [1] is above 30 µg/mL. In addition, in assay [3], the half-inhibitory concentration (IC50) was found to be 780 nM.

For the compound `CSCC[C@H](NC(=O)c1ccc(NCc2cncn2Cc2ccc(-c3ccccc3)cc2)cc1-c1ccccc1)C(=O)O`, the EC50 in the assay on Plasmodium falciparum [1] stood at 5 µg/mL (≈ 8.46 µM). In the assay with Plasmodium falciparum [2], this compound showed an inhibition at 20 µM of 89.1%. The IC50 in assay [3] was 260 nM; in assay [4], above 100 µM.

Take `N#CCCNC(=O)c1ccc(NCc2cncn2Cc2ccc(C#N)cc2)cc1-c1ccccc1`: the EC50 in the assay on Plasmodium falciparum [1] is 10 µg/mL (≈ 21.7 µM). The compound also had a 50% inhibitory concentration (IC50) in assay [3] of 220 nM.

As to `CSCC[C@H](NC(=O)c1ccc(CNCc2c[nH]cn2)cc1-c1ccccc1C)C(=O)O`, the EC50 in the assay with Plasmodium falciparum [1] is above 30 µg/mL. For the same compound, in the assay with Plasmodium falciparum [2], the inhibition at 20 µM worked out at 0%. In addition, the values for the IC50 in assay [3] and in assay [4] were 1 nM and 0.2 µM, respectively.

As for `CC(C)NC(=O)c1ccc(NCc2cncn2Cc2ccc(C#N)cc2)cc1-c1ccccc1`, the EC50 with Plasmodium falciparum [1] amounted to 3 µg/mL (≈ 6.67 µM). The results for the IC50 in assay [3] and in assay [4] were 380 nM and above 100 µM, respectively.

Take `CSCC[C@H](NC(=O)c1ccc(NCc2cncn2CC2CCCCC2)cc1-c1ccccc1)C(=O)O`: the EC50 with Plasmodium falciparum [1] stood at 10 µg/mL (≈ 19.2 µM). The inhibition at 20 µM in the assay on Plasmodium falciparum [2] was found to be 72%. In assay [3], this compound gave an IC50 of 41 nM.

Consider `CSCC[C@H](NC(=O)c1ccc(NC[C@@H](N)CS)cc1-c1ccccc1)C(=O)O`, for which the EC50 in the assay with Plasmodium falciparum [5] was above 30 µg/mL.
